The text below walks through data of patent publication US20230099739A1, “JAK KINASE INHIBITOR AND PREPARATION AND APPLICATION THEREOF” (MINGHUI PHARMACEUTICAL (SHANGHAI) LIMITED, priority 2020, published 2023).

The test system of assay [1] is Ba/F3-TEL-JAK1 cells. Briefly: CellTiter-Glo proliferation of Ba/F3-TEL-JAK1 cells. Format: cell-based. The settings on record: Mus musculus, murine B lymphocyte BaF3 with TEL-human JAK1 kinase domain. From the text: (§1) In murine B lymphocytes BaF3, recombinant genes (including TEL and human JAK1, TYK2, JAK2, JAK3 kinase domains) were transferred by using genetic engineering technology, in which TEL could promote phosphorylation of TEL-JAK1 or TEL-TYK2 kinase dimer and continuously activate, thus allowing cells to grow dependent on the activity of this recombinant kinase. […] CellTiter-Glo method was used to detect the proliferation of genetically engineered cell lines Ba/F3-TEL-JAK1, Ba/F3-TEL-TYK2, Ba/F3-TEL-JAK2, and Ba/F3-TEL-JAK3 which was cultured in vitro. Graphpad 7.0 was used to fit curves and IC 50 values were calculated.
A general note: ATP-based viability assays read luminescence as a measure of living cells.

Assay [2] addresses TYK2 (Homo sapiens, UniProt P29597). Briefly: Caliper mobility shift kinase assay, TYK2. The assay is classed as biochemical. The settings on record: 1 mM ATP concentration. Here is the method: (§2) The in vitro inhibitory effect of compounds on JAK1, JAK2, JAK3 or TYK2 kinase was detected by Caliper mobility shift assay. Compounds to be tested were dissolved in DMSO, and prepared into 10 mM stock solutions. Stock solutions of the compounds were prepared into 50× working solutions (10 concentrations in total) through gradient dilution using DMSO, and each concentration of working solution was transferred to an Echo® master plate. The Echo® non-contact nanoliter sonic pipetting system was used to transfer […] of compound solution or DMSO of the corresponding concentration from the master plate to the 384-well reaction plate. Then, 10 μL of 2.5× kinase solution was added to the 384-well reaction plate. After 10 minutes of incubation at room temperature, 10 μL of mixed solution of 2.5×FAM-labeled polypeptide and ATP (final ATP concentration was 1 mM) was added. 30 μL of stop reagent was added, detected on Caliper, and the conversion value was calculated, i.e. the height of the product peak divided by the sum of the heights of the substrate and product peaks. […] Percent inhibition=(max−conversion)/(max−min)×100, wherein “max” represents the conversion reading for the DMSO control and “min” represents the conversion reading for the low value control.

The test system of assay [3] is Ba/F3-TEL-JAK3 cells. The experiment in a line: CellTiter-Glo proliferation of Ba/F3-TEL-JAK3 cells. The assay is classed as cell-based. The settings on record: Mus musculus, murine B lymphocyte BaF3 with TEL-human JAK3 kinase domain.
From the text: as §1

The target in assay [4] is JAK1 (Homo sapiens, UniProt P23458). The experiment in a line: Caliper mobility shift kinase assay, JAK1. Format: biochemical. Particulars: 1 mM ATP concentration. As to the method:
as §2

For assay [5], the system named is Ba/F3-TEL-TYK2 cells. Briefly: CellTiter-Glo proliferation of Ba/F3-TEL-TYK2 cells. Format: cell-based. Particulars: Mus musculus, murine B lymphocyte BaF3 with TEL-human TYK2 kinase domain.
From the text: as §1

Assay [6] concerns the target JAK2 (Homo sapiens, UniProt O60674). The experiment in a line: Caliper mobility shift kinase assay, JAK2. Format: biochemical. Particulars: 1 mM ATP concentration. Here is the method: as §2
The target in assay [7] is T1, JAK3 (Homo sapiens, UniProt P52333).
T1 sequence (P52333 1-1124): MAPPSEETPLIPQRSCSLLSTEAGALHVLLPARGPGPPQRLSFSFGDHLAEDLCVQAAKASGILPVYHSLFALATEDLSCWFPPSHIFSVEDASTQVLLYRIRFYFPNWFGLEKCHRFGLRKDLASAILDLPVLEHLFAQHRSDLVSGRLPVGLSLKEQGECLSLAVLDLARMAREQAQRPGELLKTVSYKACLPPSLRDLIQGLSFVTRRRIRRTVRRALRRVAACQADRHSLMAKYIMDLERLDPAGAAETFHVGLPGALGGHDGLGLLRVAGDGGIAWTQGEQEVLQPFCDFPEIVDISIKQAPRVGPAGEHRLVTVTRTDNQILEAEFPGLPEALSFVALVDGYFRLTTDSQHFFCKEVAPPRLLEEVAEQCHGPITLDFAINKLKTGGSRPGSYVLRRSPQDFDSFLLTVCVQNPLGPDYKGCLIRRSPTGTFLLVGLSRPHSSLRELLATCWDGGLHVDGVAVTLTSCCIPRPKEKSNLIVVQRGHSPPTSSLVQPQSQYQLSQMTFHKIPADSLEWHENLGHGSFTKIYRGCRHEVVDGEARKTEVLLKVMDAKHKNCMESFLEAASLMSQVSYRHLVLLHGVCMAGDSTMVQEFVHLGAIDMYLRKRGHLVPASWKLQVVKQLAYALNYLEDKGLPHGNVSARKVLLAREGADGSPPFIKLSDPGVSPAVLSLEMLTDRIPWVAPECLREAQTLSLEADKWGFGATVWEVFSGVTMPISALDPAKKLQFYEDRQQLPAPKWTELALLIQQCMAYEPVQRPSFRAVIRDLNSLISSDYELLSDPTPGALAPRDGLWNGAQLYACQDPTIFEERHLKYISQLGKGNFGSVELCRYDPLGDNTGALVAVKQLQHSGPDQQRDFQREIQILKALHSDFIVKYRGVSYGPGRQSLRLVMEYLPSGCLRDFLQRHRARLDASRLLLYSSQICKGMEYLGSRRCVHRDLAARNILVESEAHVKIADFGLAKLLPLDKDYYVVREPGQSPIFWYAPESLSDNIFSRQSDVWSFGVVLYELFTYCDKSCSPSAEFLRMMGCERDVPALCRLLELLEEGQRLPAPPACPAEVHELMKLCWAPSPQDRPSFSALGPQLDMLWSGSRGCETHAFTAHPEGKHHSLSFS
The experiment in a line: Caliper mobility shift kinase assay, JAK3. Format: biochemical. Particulars: 1 mM ATP concentration. As to the method: as §2

Assay [8] deals with Ba/F3-TEL-JAK2 cells. The experiment in a line: CellTiter-Glo proliferation of Ba/F3-TEL-JAK2 cells. The assay is classed as cell-based. Particulars: Mus musculus, murine B lymphocyte BaF3 with TEL-human JAK2 kinase domain.
From the text: as §1

Chain of TYK2 (P29597 whole entry): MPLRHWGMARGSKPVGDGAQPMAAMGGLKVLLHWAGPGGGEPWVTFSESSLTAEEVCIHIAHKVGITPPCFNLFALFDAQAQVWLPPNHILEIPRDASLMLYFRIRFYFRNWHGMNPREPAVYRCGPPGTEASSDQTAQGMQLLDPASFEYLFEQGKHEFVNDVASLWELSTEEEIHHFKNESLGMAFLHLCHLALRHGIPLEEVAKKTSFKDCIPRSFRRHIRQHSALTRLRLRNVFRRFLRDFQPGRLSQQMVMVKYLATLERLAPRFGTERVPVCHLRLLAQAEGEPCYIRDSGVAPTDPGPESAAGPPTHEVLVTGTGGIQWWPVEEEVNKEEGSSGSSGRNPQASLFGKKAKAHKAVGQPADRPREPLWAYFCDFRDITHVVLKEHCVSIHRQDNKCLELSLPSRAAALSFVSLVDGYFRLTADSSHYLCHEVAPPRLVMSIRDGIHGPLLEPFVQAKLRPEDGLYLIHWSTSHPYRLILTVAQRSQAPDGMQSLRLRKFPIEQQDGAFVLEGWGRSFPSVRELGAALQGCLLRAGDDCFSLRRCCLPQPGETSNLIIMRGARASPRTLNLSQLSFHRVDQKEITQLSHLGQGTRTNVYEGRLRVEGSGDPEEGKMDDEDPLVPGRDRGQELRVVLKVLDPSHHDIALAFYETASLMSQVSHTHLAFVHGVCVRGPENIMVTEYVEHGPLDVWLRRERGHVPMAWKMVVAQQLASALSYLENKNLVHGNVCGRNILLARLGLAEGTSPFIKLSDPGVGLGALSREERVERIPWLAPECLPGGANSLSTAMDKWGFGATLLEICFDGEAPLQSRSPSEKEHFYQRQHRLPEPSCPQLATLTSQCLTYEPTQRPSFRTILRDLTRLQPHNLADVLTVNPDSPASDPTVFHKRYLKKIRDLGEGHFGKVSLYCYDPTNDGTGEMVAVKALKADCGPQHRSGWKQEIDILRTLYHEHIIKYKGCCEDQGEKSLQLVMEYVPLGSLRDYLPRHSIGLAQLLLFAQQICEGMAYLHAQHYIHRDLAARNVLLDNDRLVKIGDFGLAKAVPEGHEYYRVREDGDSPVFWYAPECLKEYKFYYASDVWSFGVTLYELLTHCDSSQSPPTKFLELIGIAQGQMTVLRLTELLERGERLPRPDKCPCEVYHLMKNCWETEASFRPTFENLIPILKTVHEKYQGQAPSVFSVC
Chain of JAK1 (P23458 whole entry): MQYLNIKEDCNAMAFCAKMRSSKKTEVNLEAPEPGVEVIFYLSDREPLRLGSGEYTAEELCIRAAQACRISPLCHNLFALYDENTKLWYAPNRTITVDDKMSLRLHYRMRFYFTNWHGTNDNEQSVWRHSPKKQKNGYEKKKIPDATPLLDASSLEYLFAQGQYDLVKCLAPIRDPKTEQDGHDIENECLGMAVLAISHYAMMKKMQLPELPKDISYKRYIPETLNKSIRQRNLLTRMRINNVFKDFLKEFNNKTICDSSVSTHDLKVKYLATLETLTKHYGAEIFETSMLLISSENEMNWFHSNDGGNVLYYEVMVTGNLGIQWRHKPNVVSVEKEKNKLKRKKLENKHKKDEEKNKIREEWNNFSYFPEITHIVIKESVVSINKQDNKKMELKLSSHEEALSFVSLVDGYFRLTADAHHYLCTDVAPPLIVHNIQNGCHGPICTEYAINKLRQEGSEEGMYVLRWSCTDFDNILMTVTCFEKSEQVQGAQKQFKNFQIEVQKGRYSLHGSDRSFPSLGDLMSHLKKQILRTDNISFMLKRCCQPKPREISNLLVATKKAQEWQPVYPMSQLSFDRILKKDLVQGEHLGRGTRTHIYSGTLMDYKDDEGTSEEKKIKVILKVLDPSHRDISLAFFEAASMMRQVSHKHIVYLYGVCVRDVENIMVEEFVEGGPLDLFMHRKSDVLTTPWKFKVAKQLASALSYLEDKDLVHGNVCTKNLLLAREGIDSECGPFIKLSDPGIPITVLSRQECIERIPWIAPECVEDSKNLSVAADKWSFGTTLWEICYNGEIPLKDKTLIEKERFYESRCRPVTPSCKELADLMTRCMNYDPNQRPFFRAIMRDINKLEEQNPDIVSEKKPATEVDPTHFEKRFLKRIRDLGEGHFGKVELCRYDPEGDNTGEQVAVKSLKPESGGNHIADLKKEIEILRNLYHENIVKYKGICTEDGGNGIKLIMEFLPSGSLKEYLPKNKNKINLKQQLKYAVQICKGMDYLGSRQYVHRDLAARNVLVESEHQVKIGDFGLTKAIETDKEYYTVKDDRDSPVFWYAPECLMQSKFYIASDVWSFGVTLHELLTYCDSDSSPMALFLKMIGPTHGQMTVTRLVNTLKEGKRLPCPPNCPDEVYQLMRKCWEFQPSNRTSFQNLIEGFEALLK
Chain of JAK2 (O60674 whole entry): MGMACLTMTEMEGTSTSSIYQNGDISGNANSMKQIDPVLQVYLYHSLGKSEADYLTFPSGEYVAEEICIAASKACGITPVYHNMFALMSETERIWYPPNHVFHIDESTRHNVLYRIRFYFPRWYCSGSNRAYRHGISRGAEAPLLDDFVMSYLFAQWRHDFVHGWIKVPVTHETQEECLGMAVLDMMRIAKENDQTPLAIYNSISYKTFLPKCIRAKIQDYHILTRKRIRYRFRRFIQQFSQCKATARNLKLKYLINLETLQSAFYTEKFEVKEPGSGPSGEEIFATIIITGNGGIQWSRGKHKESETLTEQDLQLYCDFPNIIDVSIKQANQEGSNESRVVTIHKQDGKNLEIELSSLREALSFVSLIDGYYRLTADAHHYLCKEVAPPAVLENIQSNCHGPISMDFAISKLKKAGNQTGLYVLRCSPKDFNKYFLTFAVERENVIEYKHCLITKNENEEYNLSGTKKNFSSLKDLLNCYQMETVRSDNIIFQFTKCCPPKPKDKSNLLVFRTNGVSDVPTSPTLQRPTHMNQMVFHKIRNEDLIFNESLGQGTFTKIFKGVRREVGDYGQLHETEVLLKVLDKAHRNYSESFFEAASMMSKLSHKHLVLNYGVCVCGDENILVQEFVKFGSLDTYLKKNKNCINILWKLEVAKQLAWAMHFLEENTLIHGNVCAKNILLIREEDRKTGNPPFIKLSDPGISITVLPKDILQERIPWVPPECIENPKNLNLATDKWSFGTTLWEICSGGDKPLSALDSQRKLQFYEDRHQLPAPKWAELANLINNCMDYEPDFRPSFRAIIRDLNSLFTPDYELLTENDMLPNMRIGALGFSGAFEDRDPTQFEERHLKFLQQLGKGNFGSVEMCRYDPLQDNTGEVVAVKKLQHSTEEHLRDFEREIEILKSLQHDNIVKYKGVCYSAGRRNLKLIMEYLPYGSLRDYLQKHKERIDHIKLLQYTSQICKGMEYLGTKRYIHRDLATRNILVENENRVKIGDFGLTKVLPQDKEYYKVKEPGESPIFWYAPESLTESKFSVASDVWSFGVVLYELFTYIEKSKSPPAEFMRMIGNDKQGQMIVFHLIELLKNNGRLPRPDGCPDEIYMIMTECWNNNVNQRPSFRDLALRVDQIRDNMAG

A word on the IC50: it is the point on the concentration scale where inhibition reaches its midpoint. As to `Cn1cc(Nc2nccc(N3CC4CSC(C3)N4C(=O)[C@@H]3CC3(F)F)n2)cn1` (stereo partly shown) [Example 1], the IC50 is 0.031 µM in assay [1]; 0.0042 µM in assay [2]; 3.69 µM in assay [3]; 0.032 µM in assay [4]; 0.111 µM in assay [5]; 0.027 µM in assay [6]. Besides, the half-inhibitory concentration (IC50) in assay [7] was found to be 3.47 µM; in assay [8], 0.087 µM.

As for `O=C([C@@H]1CC1(F)F)N1[C@H]2CS[C@@H]1CN(c1ccnc(Nc3cnn(C4(CO)CC4)c3)n1)C2` [Example 3], the IC50 in assay [1] was 0.056 µM; in assay [2] it was 0.0029 µM; in assay [3] it was > 10 µM; in assay [4], 0.107 µM; in assay [5] it was 0.556 µM; in assay [8] it was 0.427 µM.

Turning to `O=C([C@@H]1CC1(F)F)N1[C@H]2CS[C@@H]1CN(c1ccnc(Nc3cnn(CCO)c3)n1)C2` [Example 2], the IC50 amounted to 0.314 µM in assay [1]; 0.0017 µM in assay [2]; 8.64 µM in assay [3]; 0.01 µM in assay [4]; 0.192 µM in assay [5]; 0.0014 µM in assay [6]. Moreover, the figures for the concentration for half-maximal inhibition (IC50) in assay [7] and in assay [8] were 2.27 µM and 0.173 µM, respectively.
